From publication PMC9465062, “Exploring potential antidiabetic and anti-inflammatory flavonoids from Euphorbia humifusa with an integrated strategy” (Frontiers in Pharmacology, 2022)
Where “and” joins values, the source holds several entries; their conditions need not be identical. Equal entries are not always repeated. Where two headings read alike, the source gives them in different places. Marks after values point to notes of the source that are not given here.

Tests used:
[1] = DPPH free radical scavenging assay; settings: mean ± SD, n = 3
Description: (§1) The antioxidant activity of our samples was ascertained by evaluating their capacity to scavenge free radicals and reduce ferric ions. The DPPH and ABTS free radical scavenging assays were performed as per the method of Xu and his colleagues ([Xu et al., 2019]). Vit C, Trolox, and BHT were utilized as positive controls whereas pure methanol was for the blank control. The scavenging rate was calculated using the equation: Scavenging rate (%) =(A0 −AS)/A0× 100% With A 0 and As are ascribed to the absorbance value of the blank control, and the tested sample or positive control respectively. The results were expressed in IC50 values (n = 3, mean ± standard deviation).

[2] = ABTS free radical scavenging assay; settings: mean ± SD, n = 3
Description: as §1

[3] = Ferric reducing antioxidant power (FRAP) assay; settings: mean ± SD, n = 3
Description: The ferric […] behavior using the ferric reducing antioxidant power (FRAP) assay was conducted based on a priorly reported method by our research group ([Rakotondrabe et al., 2022]).

α-glucosidase (α-Glu) = α-glucosidase (α-Glu) (Saccharomyces cerevisiae, UniProt P53341); assay: Bio-affinity ultrafiltration UPLC/QTOF-MS with α-Glu; settings: SB = Aactive/Ainactive, ligands from EHNB
Description: (§2) Concisely, 100 µL volume of EHNB sample was incubated with 40 µL COX-2 (8 units), or 100 µL α-Glu (6 units) active enzymes. Afterward, the mix solutions were incubated for 45 min and subsequently transferred to a centrifugal ultrafiltration vial 10 kDa cut-off filter membrane. They were initially centrifuged at 10,000 rpm for 10 min (25°C) to withdraw the extra solution followed by three successive centrifugations with 200 µL phosphate-buffered saline (PBS) to wash away the non-binding compounds. Finally, the fixed ligand candidates were fished out from the complex throughout enzyme denaturation with 200 μL of 70% (v/v) aqueous methanol before centrifugation (10,000 rpm, 10 min). The filtrates from three denaturation processes were gathered and dried on nitrogen blowing before reconstitution in 50 μL of aqueous methanol (50%, v/v) for further analytical analysis.
(§3) In this study, the high throughput ligand screening bio-affinity ultrafiltration UPLC/QTOF-MS targeting α-Glu and COX-2 has been utilized to fish out these key hypoglycemic and anti-inflammatory chemicals. […] Based on the comparison of peak areas of the chromatograms obtained from the sample incubated with the active enzyme and that of the denatured group, the relative binding of each candidate was assessed via the specific binding value calculated from the equation: Specific binding (SB)=Aactive/Ainactive

COX-2 [4] = target: T1, COX-2 (Homo sapiens, UniProt P35354); assay: Bio-affinity ultrafiltration UPLC/QTOF-MS with COX-2; settings: SB = Aactive/Ainactive, ligands from EHNB
T1 sequence (P35354 18-604): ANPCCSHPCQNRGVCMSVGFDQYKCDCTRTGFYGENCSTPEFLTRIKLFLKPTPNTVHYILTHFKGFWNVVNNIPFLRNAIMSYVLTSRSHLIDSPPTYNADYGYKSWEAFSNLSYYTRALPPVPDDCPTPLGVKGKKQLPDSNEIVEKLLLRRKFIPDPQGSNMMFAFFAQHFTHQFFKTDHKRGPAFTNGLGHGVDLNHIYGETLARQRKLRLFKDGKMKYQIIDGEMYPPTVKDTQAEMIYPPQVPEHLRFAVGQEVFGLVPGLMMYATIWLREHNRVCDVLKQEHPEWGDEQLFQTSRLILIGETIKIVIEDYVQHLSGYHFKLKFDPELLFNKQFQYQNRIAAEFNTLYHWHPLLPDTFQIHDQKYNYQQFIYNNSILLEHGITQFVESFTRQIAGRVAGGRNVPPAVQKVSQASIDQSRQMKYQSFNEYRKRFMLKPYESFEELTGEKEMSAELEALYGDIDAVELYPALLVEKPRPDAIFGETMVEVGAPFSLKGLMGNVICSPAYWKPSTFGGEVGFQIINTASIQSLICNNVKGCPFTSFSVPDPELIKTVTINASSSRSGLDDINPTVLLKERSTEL
Description: as §2, §3

COX-2 [5] = target: T1, COX-2; assay: In vitro COX-2 inhibition assay (inhibitor screening kit); type: biochemical; parameters: purchased Beyotime Biotechnology (Shanghai, China) S0168
Description: In brief, the working solutions including COX-2 cofactor, COX-2 enzyme solution, COX-2 substrate, and COX-2 probe were first prepared in accordance with the supplier manual, which were subsequently diluted ten times with the buffer kit assay. Thereafter, 150 µL Tris-HCl (pH 7.8), 10 µL of COX-2 cofactor, and 10 µL of work solution excluding the blank group were mixed in a 96 well black plate. […] After a 10 min incubation at 37°C, the reaction was initiated with 10 µL of COX-2 probe and 10 µL of COX-2 substrate. Finally, their relative fluorescence unit (RFU) was read from an excitation wavelength of 560 nm and an emission wavelength of 590 nm, after 20 min of incubation (37°C).
With RFU 100% enzyme , RFU sample , and RFU blank control represent the relative fluorescence value of the intact enzyme, samples and blank control respectively. The experiment was conducted in triplicates and the IC50 values were expressed into mean ± standard deviation.

Sequence of α-glucosidase (α-Glu) (P53341 whole entry): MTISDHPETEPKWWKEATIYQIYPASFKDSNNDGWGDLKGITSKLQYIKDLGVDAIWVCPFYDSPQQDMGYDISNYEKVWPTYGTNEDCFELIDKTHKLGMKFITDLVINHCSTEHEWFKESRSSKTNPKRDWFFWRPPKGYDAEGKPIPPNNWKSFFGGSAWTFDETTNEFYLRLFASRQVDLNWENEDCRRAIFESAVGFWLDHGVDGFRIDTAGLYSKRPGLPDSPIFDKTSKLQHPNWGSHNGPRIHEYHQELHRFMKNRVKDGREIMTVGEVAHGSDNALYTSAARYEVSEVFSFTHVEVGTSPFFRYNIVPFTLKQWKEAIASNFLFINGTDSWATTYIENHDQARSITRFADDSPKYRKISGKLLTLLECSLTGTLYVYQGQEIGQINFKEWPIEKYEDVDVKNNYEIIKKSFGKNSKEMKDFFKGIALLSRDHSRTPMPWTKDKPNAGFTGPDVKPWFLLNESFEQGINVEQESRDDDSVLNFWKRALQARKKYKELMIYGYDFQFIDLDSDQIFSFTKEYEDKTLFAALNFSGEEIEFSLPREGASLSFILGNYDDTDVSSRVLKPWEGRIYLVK

| SMILES | IC50 DPPH [1] | IC50 ABTS [2] | FRAP [3] | α-Glu SB (specific binding) (α-glucosidase (α-Glu)) | COX-2 SB (specific binding) (COX-2 [4]) | also measured |
| --- | --- | --- | --- | --- | --- | --- |
| O=C1O[C@H]([C@@H](O)CO)C(O)=C1O [Vit C, ascorbic acid] | 3.35 ± 0.12^f µg/ml | 4.18 ± 0.06^e µg/ml | 2.04 ± 0.01 mM Fe^2+/g and 2.04 ± 0.01^a mM Fe^2+/g |  |  |  |
| Cc1c(C)c2c(c(C)c1O)CCC(C)(C(=O)O)O2 (centres unmarked) [Trolox] |  | 6.15 ± 0.98^d µg/ml | 1.79 ± 0.01 mM Fe^2+/g and 1.79 ± 0.01^b mM Fe^2+/g |  |  |  |
| O=c1oc2c(O)c(O)cc3c(=O)oc4c(O)c(O)cc1c4c23 [Compound 4, Ellagic acid] |  |  |  | 1.28 | 1.05 |  |
| O=c1c(O[C@@H]2O[C@H](CO)[C@@H](O)[C@H](O)[C@H]2O)c(-c2ccc(O)cc2)oc2cc(O)cc(O)c12 [Compound 6, Astragalin (Kaempferol-3-O-glucoside)] |  |  |  | 1.32 | 1.36 | IC50 (COX-2 [5]; validation with pure compounds, Figure 6B, read-out: COX-2 IC50): 49.1 ± 1.49 µM |
| O=c1cc(-c2ccc(O)cc2)oc2c([C@@H]3O[C@H](CO)[C@@H](O)[C@H](O)[C@H]3O)c(O)cc(O)c12 [Compound 8, Vitexin (Apigenin 8-C-glucoside)] |  |  |  | 1.26 | 1.32 | IC50 (COX-2 [5]): 27.9 ± 1.74 µM |
| Cc1cc(C(C)(C)C)c(O)c(C(C)(C)C)c1 [BHT, butylated hydroxytoluene] | 10.82 ± 0.37^c µg/ml |  |  |  |  |  |
